Laboratory results from ChEMBL document CHEMBL1135857, “Exploration of peptidyl hydrazones as water-soluble calpain inhibitors” (Bioorg Med Chem Lett, 2002).
Values after ≈ are worked out from the molar mass of the structure shown.

Tests used:
[1] = molecular target: T1, Calpain-1 catalytic subunit (Sus scrofa, UniProt P35750); experiment: Tested for inhibitory activity against porcine erythrocyte Mu-calpain
T1 sequence (P35750 whole entry): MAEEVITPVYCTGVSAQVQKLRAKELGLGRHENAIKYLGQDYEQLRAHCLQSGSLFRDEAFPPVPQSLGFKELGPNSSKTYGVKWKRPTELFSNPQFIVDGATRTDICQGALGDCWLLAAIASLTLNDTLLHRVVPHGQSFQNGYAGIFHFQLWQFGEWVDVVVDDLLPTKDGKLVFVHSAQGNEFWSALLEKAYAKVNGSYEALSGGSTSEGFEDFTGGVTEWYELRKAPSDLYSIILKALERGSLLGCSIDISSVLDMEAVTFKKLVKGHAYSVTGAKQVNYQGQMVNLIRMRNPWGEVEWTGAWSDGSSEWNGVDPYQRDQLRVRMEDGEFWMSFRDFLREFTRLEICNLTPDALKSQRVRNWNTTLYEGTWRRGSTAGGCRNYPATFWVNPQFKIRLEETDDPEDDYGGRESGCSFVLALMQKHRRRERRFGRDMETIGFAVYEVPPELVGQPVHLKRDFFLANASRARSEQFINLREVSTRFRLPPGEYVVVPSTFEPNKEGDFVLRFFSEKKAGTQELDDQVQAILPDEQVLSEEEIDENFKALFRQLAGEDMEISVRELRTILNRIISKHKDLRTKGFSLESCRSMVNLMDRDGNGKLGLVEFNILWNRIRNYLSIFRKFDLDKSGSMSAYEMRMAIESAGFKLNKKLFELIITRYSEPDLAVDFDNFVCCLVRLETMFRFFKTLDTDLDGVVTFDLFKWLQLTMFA

[2] = Water solubility was determined at pH 4; type: ADME
[3] = Water solubility was determined at pH 7; type: ADME
[4] = Water solubility was determined at pH 6; type: ADME
[5] = Water solubility was determined at pH 5; type: ADME

IC50 [1]	solubility [2]	solubility [3]	solubility [4]	solubility [5]	Structure (SMILES)
0.035 µM	102 µg/mL (≈ 274 µM)	105 µg/mL (≈ 282 µM)	100 µg/mL (≈ 268 µM)	–	CC(C)C[C@@H](C=O)NC(=O)[C@@H](NS(=O)(=O)c1ccc(F)cc1)C(C)C
6.2 µM	1260 µg/mL (≈ 3150 µM)	667 µg/mL (≈ 1670 µM)	692 µg/mL (≈ 1730 µM)	840 µg/mL (≈ 2100 µM)	CC(C)[C@H](NS(=O)(=O)c1ccc(F)cc1)C(=O)NC/C=N/N1CCOCC1
0.19 µM	228 µg/mL (≈ 530 µM)	293 µg/mL (≈ 681 µM)	226 µg/mL (≈ 525 µM)	234 µg/mL (≈ 543 µM)	CC(C)C[C@@H](/C=N/NCCO)NC(=O)[C@@H](NS(=O)(=O)c1ccc(F)cc1)C(C)C
0.68 µM	433 µg/mL (≈ 1010 µM)	–	–	–	CC(C)C[C@@H](/C=N/NC(N)=O)NC(=O)[C@@H](NS(=O)(=O)c1ccc(F)cc1)C(C)C
> 10 µM	> 5000 µg/mL	> 5000 µg/mL	> 5000 µg/mL	> 5000 µg/mL	CC(C)[C@H](NS(=O)(=O)c1ccc(F)cc1)C(=O)NC/C=N/NC(=O)CN(C)C
0.79 µM	67.3 µg/mL (≈ 147 µM)	58.2 µg/mL (≈ 127 µM)	60.8 µg/mL (≈ 133 µM)	63.3 µg/mL (≈ 139 µM)	CC(C)C[C@@H](/C=N/N1CCOCC1)NC(=O)[C@@H](NS(=O)(=O)c1ccc(F)cc1)C(C)C
